This data set can be described thus: gradient 5% acetonitrile 3 min, to 50% in 2 min, to 85% in 15 min, held 3 min, 100 µL/min. The conditions noted are these: column: Zorbax Extend-C18 2.1 x 50 mm; eluents: water / acetonitrile, 0.1% formic acid. Put shortly:
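Retention times of pure standards were taken from adduct peaks that were selected by computer and manually inspected. Over 3 months, mixtures of ~100 molecules were run by HPLC–quadrupole time-of-flight mass spectrometry in positive and negative ionization mode. The Zorbax Extend-C18 column (2.1 × 50 mm, 1.8 μm) ran at 100 μL/min in water and acetonitrile, each containing 0.1% formic acid, with 40 μL dead volume and 900 μL dwell volume.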
`Cc1ccc(-c2nnc(N3CCC(C(=O)NC(C)c4ccccc4)CC3)o2)cc1` (centres undefined) came in with an RP-LC retention time of 886 s.

Consider `CCc1ccccc1NC(=O)Cn1c(=O)cc(-c2nc(C3CC3)no2)c2ccccc21`, for which the RP-LC retention time stood at 990 s.

Regarding `COc1ccc(-c2nc(-c3cccc(-c4ccnn4C)c3)no2)c(C)c1`, the RP-LC retention time is 1210 s.

Consider `COc1ccc(-c2noc(CCCC(=O)Nc3nc(-c4ccccc4)cs3)n2)cc1OC`, for which the RP-LC retention time is 982 s.

Take `O=C(NCc1ccco1)C1CCN(c2cnc3nccnc3c2)CC1`: the RP-LC retention time was found to be 629 s.

The compound `Cc1ccccc1OCc1nc(C2CN(C(=O)NC(C)C)C2)no1` displayed an RP-LC retention time of 804 s.

In turn, `Cn1c(C(=O)Nc2ccc(N3CCOCC3)cc2)cc2c1CCN(Cc1ccccc1)C2` returned an RP-LC retention time of 618 s.

`Cc1oc2ccn(Cc3ccc(F)cc3)c(=O)c2c1C(=O)NCc1cc(F)ccc1F` came in with an RP-LC retention time of 1130 s.

As to `CCCCN(C)c1ccc(NC(=O)CC(C)C)c(C(=O)O)c1`, the RP-LC retention time came out at 729 s.

In turn, `Cc1nc(CCNC(=O)C2CCN(S(=O)(=O)c3cccc(C(F)(F)F)c3)CC2)cs1` had an RP-LC retention time of 776 s.

`COC(=O)c1c(C)[nH]c(C(=O)N2CCC(CC(=O)NCc3cccc(F)c3)CC2)c1C` yielded an RP-LC retention time of 735 s.

Regarding `Fc1ccc(OCc2nnc3sc(COc4ccccc4)nn23)cc1`, the RP-LC retention time came to 938 s.

For the compound `Cc1ccc(NC(=O)NCC2(N3CCOCC3)CCOC2)c(C)c1` (centres undefined), the RP-LC retention time is 597 s.

As to `O=S(=O)(CCOc1ccc(F)cc1)Nc1ccc(N2CCOCC2)cc1`, the RP-LC retention time was 767 s.

In turn, `Cc1cc(C(=O)N2CCCn3ccnc3C2c2cnn(C)c2)c(C)o1` (centres undefined) gave an RP-LC retention time of 587 s.

As for `COc1ccc(-c2ccc3nc(N4CCC(C(=O)NC5CC5)CC4)sc3n2)cc1`, the RP-LC retention time worked out at 746 s.

`CCOc1ccc(NC(=O)Nc2cc(C(C)C)ccc2C)cc1` came in with an RP-LC retention time of 1160 s.

Compound `CC(C)c1noc(-c2cc(=O)n(CC(=O)NCc3ccccc3F)c3ccccc23)n1` displayed an RP-LC retention time of 959 s.

The compound `CCOC(=O)c1ccc(NC(=O)Cn2cnc3nc(N4CCCC(C(=O)NC)C4)sc3c2=O)cc1` (centres undefined) had an RP-LC retention time of 658 s.

The compound `COc1ccc(C2C(C(=O)Nc3ccccn3)c3cc(OC)c(OC)cc3C(=O)N2C)cc1OC` (centres undefined) returned an RP-LC retention time of 677 s.

Consider `CC(C)CC(=O)Nc1nc(-c2ccc3c(c2)N(C)C(=O)C(C)O3)cs1` (centres undefined), for which the RP-LC retention time was found to be 921 s.

Consider `O=C(c1c(F)cccc1F)N1CCC2(CC1)N=C(c1ccc(Cl)cc1)NO2`, for which the RP-LC retention time worked out at 847 s.

With `CC1Cc2ccccc2N1C(=O)Cn1c(=O)n(C(C)C)c2ccc(S(=O)(=O)N3CCCC3)cc21` (centres undefined), the RP-LC retention time is 963 s.

`CCn1nc(C)c2c(-c3ccccc3)cc(OC(C)C(=O)Nc3ccc(C(C)=O)cc3)nc21` (centres undefined) gave an RP-LC retention time of 1030 s.

In turn, `CS(=O)(=O)N1CCCc2cc(C(=O)Nc3ccc(Br)cc3)ccc21` returned an RP-LC retention time of 951 s.

`O=C(CSc1nnc(NC(=O)Cc2cccc3ccccc23)s1)NCC1CCCO1` (centres undefined) showed an RP-LC retention time of 715 s.

For the compound `CC(=O)NCc1ccc(-c2noc(/C=C/c3cccc(Cl)c3)n2)s1`, the RP-LC retention time was 903 s.

`C=CCn1c(=O)c2ccccc2n(Cc2nc(-c3ccc(OC)c(OC)c3)no2)c1=O` returned an RP-LC retention time of 937 s.

Take `CC(=O)c1ccc2c3c(cccc13)C(=O)N(c1ccccc1)C2=O`: the RP-LC retention time is 811 s.

With `O=C(Cn1nc(N2CCCCCC2)c2ccccc2c1=O)NC1CCc2ccccc21` (centres undefined), the RP-LC retention time was 1120 s.

For the compound `Cc1nsc2ncc(C(=O)N3CCOCC3)c(N3CCC(C(=O)Nc4cccc(Cl)c4)CC3)c12`, the RP-LC retention time was 848 s.

`CCOC(=O)N1CCN(C(=O)C2CCN(c3ncnc4c3oc3ccccc34)CC2)CC1`: the RP-LC retention time turned out to be 673 s.

As to `CCCN1C(=O)COc2ccc(-c3csc(NC(=O)c4c(OC)cccc4OC)n3)cc21`, the RP-LC retention time amounted to 944 s.

Consider `COc1cc2c(cc1OC)C(C(=O)NCCCN1CCOCC1)C1c3ccccc3CCN1C2=O` (centres undefined), for which the RP-LC retention time is 592 s.

Compound `CC1CCCCN1C(=O)CSc1nc(-c2ccccc2)no1` (centres undefined) registered an RP-LC retention time of 1070 s.

`CC1CN(C(=O)Cn2cc(SCC(=O)N3CCCCCC3)c3ccccc32)CC(C)O1` (centres undefined) showed an RP-LC retention time of 889 s.

As for `Cc1ccc(CNC(=O)C2CCc3nc(N4CCOCC4)ncc3C2)cc1` (centres undefined), the RP-LC retention time worked out at 723 s.

In turn, `COCCN1C(=O)c2cccn2CC1CNC(=O)Cn1nc(C(F)(F)F)cc1C` (centres undefined) yielded an RP-LC retention time of 703 s.

Turning to `CC(C)N1CCN(C(=O)c2nc(N3CCSCC3)c3cnn(C)c3n2)CC1`, the RP-LC retention time came out at 577 s.

In the case of `CN1c2cc(F)ccc2C(=O)NC12CCN(C(=O)c1cc(F)cc(F)c1)CC2`, the RP-LC retention time is 793 s.

With `Nn1nnc2ccccc21`, the RP-LC retention time was found to be 651 s.

`CCCCC(=O)N1CCc2c(c(C(=O)NCc3ccc4c(c3)OCO4)nn2C)C1`: the RP-LC retention time came out at 767 s.

As to `CCCn1c(=O)c2cc(C(=O)Nc3cccc(C)c3)nn2c2ccccc21`, the RP-LC retention time was found to be 1080 s.

Take `CN(C(=O)c1c2c(cn(-c3ccccc3)c1=O)C(=O)CC(C)(C)C2)c1ccc(F)cc1`: the RP-LC retention time was 835 s.

The compound `COc1ccc(C(=O)Nc2nnc(SCc3nnc(-c4ccccc4C)o3)s2)cc1OC` came in with an RP-LC retention time of 898 s.

`CCOC(=O)C1=C(CN2CCC(C(=O)OCC)CC2)NC(=O)NC1c1ccccc1` (centres undefined) yielded an RP-LC retention time of 643 s.

`CCOc1ccc(-c2csc(Cc3nc(-c4ccc5c(c4)OCO5)no3)n2)cc1` came in with an RP-LC retention time of 1200 s.

Compound `O=C(CN1CCCCC1c1nc(-c2cccc(F)c2)no1)NCc1cccs1` (centres undefined) registered an RP-LC retention time of 1060 s.

Turning to `COC(=O)CCc1sc(Nc2ccccn2)nc1-c1ccc(OC)cc1`, the RP-LC retention time came out at 810 s.

For the compound `COC(=O)Nc1csc2c1NC(=O)CCCC2`, the RP-LC retention time amounted to 716 s.

Consider `Clc1ccc(Cc2nc(-c3cccc(-c4ccn[nH]4)c3)no2)cc1`, for which the RP-LC retention time turned out to be 1010 s.

The compound `N#Cc1cc2c(nc1SCC(=O)N1CCOCC1)CCCCC2` came in with an RP-LC retention time of 891 s.

As for `CN(C)CCC(c1ccccc1)c1ccccn1` (centres undefined), the RP-LC retention time came to 580 s.

`O=S(=O)(c1ccc(F)cc1)N1CCC2(CC1)NCCN=C2NCc1ccccc1F`: the RP-LC retention time is 692 s.

With `O=C(NCCc1ccco1)C1CCCN(C(=O)c2cccn2-c2cccnc2)C1` (centres undefined), the RP-LC retention time came out at 660 s.

`CCOc1ccc(-n2ccn3c(CC(C)CC(=O)NCC(C)C)nnc3c2=O)cc1` (centres undefined) showed an RP-LC retention time of 683 s.

Regarding `Cc1ccc(N2CCN(C(=O)C3CC(=O)N(c4cccc(NC(=O)C(C)C)c4)C3)CC2)cc1` (centres undefined), the RP-LC retention time worked out at 802 s.

Take `O=C(NCCC1=CCCCC1)c1ccc2ncnc(N3CCCC3)c2c1`: the RP-LC retention time is 688 s.

With `O=C1CC(c2nc3ccccc3n2CC(O)COc2ccccc2Cl)CN1Cc1ccccc1` (centres undefined), the RP-LC retention time was 797 s.

`CCN(CC)S(=O)(=O)c1ccc(NC(=O)c2oc3c(c2C)C(=O)CC(C)(C)C3)cc1` came in with an RP-LC retention time of 982 s.

Take `CC(C)Oc1ccc(CNC(=O)c2nnc(-c3ccc(S(=O)(=O)N(C)C)cc3)o2)cc1`: the RP-LC retention time is 943 s.

`CC(C)Cn1cc(CCNS(=O)(=O)c2ccc(C(C)C)cc2)c2cccnc21` had an RP-LC retention time of 1110 s.

Compound `COc1ccc(NC(=O)N2CCC3(C2)C(=O)N(C)c2ccc(OC)cc23)cc1` (centres undefined) had an RP-LC retention time of 732 s.

As for `Cc1ccc(NC(=O)c2c(C)sc3ncnc(N4CCCC(C)C4)c23)cc1F` (centres undefined), the RP-LC retention time turned out to be 1290 s.

As to `COc1ccc(-c2ccnc3nc(-c4cccs4)nn23)cc1`, the RP-LC retention time came out at 892 s.

`CN(C)S(=O)(=O)c1ccc2c(c1)N(CC(=O)Nc1ccc(Cl)cc1)C(=O)C1CCCCN21` (centres undefined) had an RP-LC retention time of 988 s.

Consider `CN(Cc1cccnc1)C(=O)C12CCC=C1N(C1CCCC1)C(=O)CC2` (centres undefined), for which the RP-LC retention time is 577 s.

The compound `COc1ccc(N2CCN(c3ncc(S(=O)(=O)c4ccccc4)c(N)n3)CC2)cc1` showed an RP-LC retention time of 848 s.

For `Cc1cc(Cl)ccc1S(=O)(=O)N1CCCC1c1nc(-c2cccc(F)c2)no1` (centres undefined), the RP-LC retention time is 1220 s.

The compound `COc1ccc(-c2cc(C(=O)N3CCCC3c3c(C)noc3C)on2)cc1` (centres undefined) had an RP-LC retention time of 856 s.

In turn, `Cn1cc2c(N3CCSCC3)nc(C(=O)NCc3ccc(N4CCCC4)cc3)nc2n1` yielded an RP-LC retention time of 699 s.

Take `Cc1ccc(-n2c(=O)c3sccc3n(Cc3nc(-c4ccc(C)c(C)c4)no3)c2=O)cc1`: the RP-LC retention time came out at 1150 s.

Turning to `CCOc1ccc(NC(=O)Cn2c(C)nc3onc(C)c3c2=O)cc1`, the RP-LC retention time amounted to 755 s.

For `CCS(=O)(=O)NCc1ccc2c(c1)CCN2C(=O)c1cccc(C)c1`, the RP-LC retention time amounted to 815 s.

On to `O=C(NC1CCCCC1)C1c2ccccc2C(=O)N1Cc1ccc2c(c1)OCO2` (centres undefined), for which the RP-LC retention time is 860 s.

Consider `O=C1NC2(CCN(C(=O)Nc3ccccc3Cl)CC2)N=C1c1ccccc1`, for which the RP-LC retention time is 800 s.

As for `Cc1nn2c(CNS(=O)(=O)c3ccccc3)c(-c3ccccc3)nc2s1`, the RP-LC retention time worked out at 818 s.

Consider `O=C1COc2cc(S(=O)(=O)N3CCC(C(=O)N4CCc5ccccc5C4)CC3)c(Cl)cc2N1`, for which the RP-LC retention time stood at 838 s.

`CCc1ccc(NC(=O)Nc2ccc3nnc(C)n3c2)cc1` returned an RP-LC retention time of 712 s.

These data come from the METLIN SMRT retention time set (Domingo-Almenara et al. 2019).
